# Results as given in ChEMBL document CHEMBL2396574, “Design, synthesis and evaluation of retinoids with novel bulky hydrophobic partial structures” (Bioorg Med Chem, 2013).
# Calls of active or inactive are those of the source. The rule behind the calls is not given here.
# Target: T1, Retinoic acid receptor RXR-beta (Homo sapiens) (UniProt P28702)
# T1 sequence (whole entry): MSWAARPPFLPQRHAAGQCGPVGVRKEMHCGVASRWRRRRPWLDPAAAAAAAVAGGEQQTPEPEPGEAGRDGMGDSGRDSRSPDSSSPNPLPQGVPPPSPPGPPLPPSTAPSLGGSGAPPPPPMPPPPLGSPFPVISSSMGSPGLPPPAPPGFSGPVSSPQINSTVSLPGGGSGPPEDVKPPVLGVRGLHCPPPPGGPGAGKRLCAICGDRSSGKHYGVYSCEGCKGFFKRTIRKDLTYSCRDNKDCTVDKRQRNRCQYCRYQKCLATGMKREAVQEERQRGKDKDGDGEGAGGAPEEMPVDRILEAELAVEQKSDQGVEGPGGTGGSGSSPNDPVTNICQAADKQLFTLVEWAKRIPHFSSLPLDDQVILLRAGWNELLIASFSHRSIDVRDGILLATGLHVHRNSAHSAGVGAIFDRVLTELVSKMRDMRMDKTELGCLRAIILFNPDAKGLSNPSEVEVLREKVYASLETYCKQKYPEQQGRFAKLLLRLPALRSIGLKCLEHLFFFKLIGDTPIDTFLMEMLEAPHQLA
# Experiment: Transactivation of full-length RXRbeta (unknown origin) expressed in African green monkey COS1 cells at 1000 nM by luciferase reporter gene assay
# Type: cell-based
# Conditions: COS-1
row,Compound,Activity
1,O=C(Nc1cc2c3c(c1)CCCC3CCC2)c1ccc(C(=O)O)nc1,inactive
2,O=C(Nc1ccc(C(=O)O)c(O)c1)c1cc2c3c(c1)CCCC3CCC2,inactive
3,O=C(O)c1ccc(NC(=O)c2cc3c4c(c2)CCCC4CCC3)nc1,inactive
4,CC1=C(/C=C/C(C)=C/C=C/C(C)=C/C(=O)O)C(C)(C)CCC1 [TRETINOIN],inactive
5,O=C(O)c1ccc(NC(=O)c2cc3cc(c2)CCCCCCCCCC3)cc1,inactive
6,CC12CCCc3cc(NC(=O)c4ccc(C(=O)O)s4)cc(c31)CCC2,inactive
7,COc1cc(NC(=O)c2cc3c4c(c2)CCCCC4CCCC3)ccc1C(=O)O,inactive
8,CC12CCCc3cc(C(=O)Nc4ccc(C(=O)O)nc4)cc(c31)CCC2,inactive
9,CC12CCCc3cc(C(=O)Nc4ccc(C(=O)O)s4)cc(c31)CCC2,inactive
10,CC12CCCc3cc(C(=O)Nc4ccc(C(=O)O)c(O)c4)cc(c31)CCC2,inactive
11,CC12CCCc3cc(C(=O)Nc4ccc(C(=O)O)c(F)c4)cc(c31)CCC2,inactive
12,CC12CCCc3cc(NC(=O)c4ccc(C(=O)O)cn4)cc(c31)CCC2,inactive
13,O=C(Nc1ccc(C(=O)O)c(Cl)c1)c1cc2c3c(c1)CCCCC3CCCC2,inactive
14,CC12CCCc3cc(C(=O)Nc4ccc(C(=O)O)cc4)cc(c31)CCC2,inactive
15,CC12CCCc3cc(NC(=O)c4ccc(C(=O)O)nc4)cc(c31)CCC2,inactive

# Tested on: HL-60
# Experiment: Induction of human HL60 cell differentiation into myeloid cells at 10 nM after 4 days by NBT reduction assay relative to control
# Type: functional
# Conditions: not given
row,Compound,Activity
1,O=C(Nc1ccc(C(=O)O)c(O)c1)c1cc2c3c(c1)CCCC3CCC2,24%
2,O=C(O)c1ccc(NC(=O)c2cc3c4c(c2)CCCC4CCC3)nc1,54%
3,CC1=C(/C=C/C(C)=C/C=C/C(C)=C/C(=O)O)C(C)(C)CCC1 [TRETINOIN],46%
4,O=C(O)c1ccc(NC(=O)c2cc3cc(c2)CCCCCCCCCC3)cc1,30%
5,CC12CCCc3cc(C(=O)Nc4ccc(C(=O)O)c(O)c4)cc(c31)CCC2,17%
6,CC12CCCc3cc(C(=O)Nc4ccc(C(=O)O)c(F)c4)cc(c31)CCC2,18%
7,CC12CCCc3cc(NC(=O)c4ccc(C(=O)O)cn4)cc(c31)CCC2,5%
8,O=C(Nc1ccc(C(=O)O)c(Cl)c1)c1cc2c3c(c1)CCCCC3CCCC2,18%
9,CC12CCCc3cc(C(=O)Nc4ccc(C(=O)O)cc4)cc(c31)CCC2,36%

# Target: T2, Retinoic acid receptor gamma (Homo sapiens) (UniProt P13631)
# T2 sequence (whole entry): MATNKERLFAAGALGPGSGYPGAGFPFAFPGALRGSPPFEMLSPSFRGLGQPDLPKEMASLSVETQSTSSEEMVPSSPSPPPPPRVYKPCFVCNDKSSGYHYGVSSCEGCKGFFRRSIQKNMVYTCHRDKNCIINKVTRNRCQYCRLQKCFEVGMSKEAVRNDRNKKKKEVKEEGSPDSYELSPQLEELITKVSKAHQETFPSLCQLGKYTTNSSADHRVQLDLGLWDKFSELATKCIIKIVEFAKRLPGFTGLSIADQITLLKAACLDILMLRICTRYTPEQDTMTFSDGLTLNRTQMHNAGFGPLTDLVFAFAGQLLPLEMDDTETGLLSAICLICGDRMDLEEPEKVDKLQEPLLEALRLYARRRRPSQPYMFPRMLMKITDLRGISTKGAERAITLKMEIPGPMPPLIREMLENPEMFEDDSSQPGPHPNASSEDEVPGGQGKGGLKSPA
# Experiment: Transactivation of Gal4-fused RARgamma (unknown origin) expressed in African green monkey COS1 cells at 100 nM by luciferase reporter gene assay relative to DMSO-treated control
# Type: cell-based
# Conditions: COS-1
row,Compound,fold change (FC)
1,O=C(Nc1cc2c3c(c1)CCCC3CCC2)c1ccc(C(=O)O)nc1,1
2,O=C(Nc1ccc(C(=O)O)c(O)c1)c1cc2c3c(c1)CCCC3CCC2,2
3,O=C(O)c1ccc(NC(=O)c2cc3c4c(c2)CCCC4CCC3)nc1,20
4,O=C(O)c1ccc(NC(=O)c2cc3cc(c2)CCCCCCCCCC3)cc1,1
5,CC12CCCc3cc(NC(=O)c4ccc(C(=O)O)s4)cc(c31)CCC2,1
6,COc1cc(NC(=O)c2cc3c4c(c2)CCCCC4CCCC3)ccc1C(=O)O,2
7,CC12CCCc3cc(C(=O)Nc4ccc(C(=O)O)nc4)cc(c31)CCC2,1
8,CC12CCCc3cc(C(=O)Nc4ccc(C(=O)O)s4)cc(c31)CCC2,1
9,CC12CCCc3cc(C(=O)Nc4ccc(C(=O)O)c(O)c4)cc(c31)CCC2,1
10,CC12CCCc3cc(C(=O)Nc4ccc(C(=O)O)c(F)c4)cc(c31)CCC2,2
11,CC12CCCc3cc(NC(=O)c4ccc(C(=O)O)cn4)cc(c31)CCC2,2
12,O=C(Nc1ccc(C(=O)O)c(Cl)c1)c1cc2c3c(c1)CCCCC3CCCC2,2
13,CC12CCCc3cc(C(=O)Nc4ccc(C(=O)O)cc4)cc(c31)CCC2,4
14,CC12CCCc3cc(NC(=O)c4ccc(C(=O)O)nc4)cc(c31)CCC2,1

# Target: T3, Retinoic acid receptor RXR-gamma (Homo sapiens) (UniProt P48443)
# T3 sequence (whole entry): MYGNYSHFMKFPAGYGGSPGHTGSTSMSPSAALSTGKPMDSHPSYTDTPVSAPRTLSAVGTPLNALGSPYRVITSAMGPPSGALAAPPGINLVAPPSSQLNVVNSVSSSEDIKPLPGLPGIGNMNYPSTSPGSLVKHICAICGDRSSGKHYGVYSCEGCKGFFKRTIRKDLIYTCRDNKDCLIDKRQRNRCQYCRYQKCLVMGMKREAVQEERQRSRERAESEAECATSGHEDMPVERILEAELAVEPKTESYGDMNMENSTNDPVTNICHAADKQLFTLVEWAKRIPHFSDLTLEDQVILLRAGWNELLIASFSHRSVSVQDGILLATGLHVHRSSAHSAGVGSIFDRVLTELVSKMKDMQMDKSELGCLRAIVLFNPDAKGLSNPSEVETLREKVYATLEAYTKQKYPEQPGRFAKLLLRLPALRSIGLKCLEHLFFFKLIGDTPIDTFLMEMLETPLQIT
# Experiment: Transactivation of full-length RXRgamma (unknown origin) expressed in African green monkey COS1 cells at 1000 nM by luciferase reporter gene assay
# Type: cell-based
# Conditions: COS-1
row,Compound,Activity
1,O=C(Nc1cc2c3c(c1)CCCC3CCC2)c1ccc(C(=O)O)nc1,inactive
2,O=C(Nc1ccc(C(=O)O)c(O)c1)c1cc2c3c(c1)CCCC3CCC2,inactive
3,O=C(O)c1ccc(NC(=O)c2cc3c4c(c2)CCCC4CCC3)nc1,inactive
4,CC1=C(/C=C/C(C)=C/C=C/C(C)=C/C(=O)O)C(C)(C)CCC1 [TRETINOIN],inactive
5,O=C(O)c1ccc(NC(=O)c2cc3cc(c2)CCCCCCCCCC3)cc1,inactive
6,CC12CCCc3cc(NC(=O)c4ccc(C(=O)O)s4)cc(c31)CCC2,inactive
7,COc1cc(NC(=O)c2cc3c4c(c2)CCCCC4CCCC3)ccc1C(=O)O,inactive
8,CC12CCCc3cc(C(=O)Nc4ccc(C(=O)O)nc4)cc(c31)CCC2,inactive
9,CC12CCCc3cc(C(=O)Nc4ccc(C(=O)O)s4)cc(c31)CCC2,inactive
10,CC12CCCc3cc(C(=O)Nc4ccc(C(=O)O)c(O)c4)cc(c31)CCC2,inactive
11,CC12CCCc3cc(C(=O)Nc4ccc(C(=O)O)c(F)c4)cc(c31)CCC2,inactive
12,CC12CCCc3cc(NC(=O)c4ccc(C(=O)O)cn4)cc(c31)CCC2,inactive
13,O=C(Nc1ccc(C(=O)O)c(Cl)c1)c1cc2c3c(c1)CCCCC3CCCC2,inactive
14,CC12CCCc3cc(C(=O)Nc4ccc(C(=O)O)cc4)cc(c31)CCC2,inactive
15,CC12CCCc3cc(NC(=O)c4ccc(C(=O)O)nc4)cc(c31)CCC2,inactive

# Target: T4, Retinoic acid receptor beta (Homo sapiens) (UniProt P10826)
# T4 sequence (whole entry): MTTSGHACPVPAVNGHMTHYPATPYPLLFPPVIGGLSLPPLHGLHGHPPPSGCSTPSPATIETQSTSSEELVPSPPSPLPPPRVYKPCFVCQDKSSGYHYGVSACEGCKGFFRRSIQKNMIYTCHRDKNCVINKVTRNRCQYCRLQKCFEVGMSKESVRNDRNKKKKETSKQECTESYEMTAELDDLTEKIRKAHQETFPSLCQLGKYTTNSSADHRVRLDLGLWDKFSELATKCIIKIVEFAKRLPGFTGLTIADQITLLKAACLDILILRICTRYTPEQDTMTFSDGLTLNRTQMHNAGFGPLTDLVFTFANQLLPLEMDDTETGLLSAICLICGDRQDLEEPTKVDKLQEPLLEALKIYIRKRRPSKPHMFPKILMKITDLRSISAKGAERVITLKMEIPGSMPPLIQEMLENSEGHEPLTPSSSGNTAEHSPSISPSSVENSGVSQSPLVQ
# Experiment: Transactivation of Gal4-fused RARbeta (unknown origin) expressed in African green monkey COS1 cells at 100 nM by luciferase reporter gene assay relative to DMSO-treated control
# Type: cell-based
# Conditions: COS-1
row,Compound,fold change (FC)
1,O=C(Nc1ccc(C(=O)O)c(O)c1)c1cc2c3c(c1)CCCC3CCC2,6
2,O=C(O)c1ccc(NC(=O)c2cc3c4c(c2)CCCC4CCC3)nc1,40
3,O=C(O)c1ccc(NC(=O)c2cc3cc(c2)CCCCCCCCCC3)cc1,13
4,COc1cc(NC(=O)c2cc3c4c(c2)CCCCC4CCCC3)ccc1C(=O)O,1
5,CC12CCCc3cc(C(=O)Nc4ccc(C(=O)O)s4)cc(c31)CCC2,1
6,CC12CCCc3cc(C(=O)Nc4ccc(C(=O)O)c(O)c4)cc(c31)CCC2,7
7,CC12CCCc3cc(C(=O)Nc4ccc(C(=O)O)c(F)c4)cc(c31)CCC2,13
8,CC12CCCc3cc(NC(=O)c4ccc(C(=O)O)cn4)cc(c31)CCC2,26
9,O=C(Nc1ccc(C(=O)O)c(Cl)c1)c1cc2c3c(c1)CCCCC3CCCC2,13
10,CC12CCCc3cc(C(=O)Nc4ccc(C(=O)O)cc4)cc(c31)CCC2,20

# Tested on: HL-60
# Experiment: Induction of human HL60 cell differentiation into myeloid cells at 100 nM after 4 days by NBT reduction assay relative to control
# Type: functional
# Conditions: not given
row,Compound,Activity
1,O=C(Nc1ccc(C(=O)O)c(O)c1)c1cc2c3c(c1)CCCC3CCC2,42%
2,O=C(O)c1ccc(NC(=O)c2cc3c4c(c2)CCCC4CCC3)nc1,59%
3,CC1=C(/C=C/C(C)=C/C=C/C(C)=C/C(=O)O)C(C)(C)CCC1 [TRETINOIN],71%
4,O=C(O)c1ccc(NC(=O)c2cc3cc(c2)CCCCCCCCCC3)cc1,38%
5,CC12CCCc3cc(C(=O)Nc4ccc(C(=O)O)c(O)c4)cc(c31)CCC2,32%
6,CC12CCCc3cc(C(=O)Nc4ccc(C(=O)O)c(F)c4)cc(c31)CCC2,29%
7,CC12CCCc3cc(NC(=O)c4ccc(C(=O)O)cn4)cc(c31)CCC2,16%
8,O=C(Nc1ccc(C(=O)O)c(Cl)c1)c1cc2c3c(c1)CCCCC3CCCC2,35%
